Measurements from patent publication US20220401439A1, “INTRANASAL PHARMACEUTICAL COMPOSITIONS OF CGRP INHIBITORS” (Biohaven Pharmaceutical Holding Company Ltd., priority 2019, published 2022).
Marks after values point to notes of the source that are not given here.

System: patients receiving acute treatment of migraine
Assay: Phase 2/3 trial BHV3500-201 (Study 201), efficacy in acute treatment of migraine
Format: in vivo, human
Conditions: for Pain relief at 2 hours postdose, Stratified Percentage Difference (Zavegepant-Placebo): stratified by prophylactic migraine medication use; for Return to normal function at 30 minutes postdose, Stratified Percentage Difference (Zavegepant-Placebo) / Return to normal function at 60 minutes postdose, Stratified Percentage Difference (Zavegepant-Placebo) / Return to normal function at 2 hours postdose, Stratified Percentage Difference (Zavegepant-Placebo): subjects with functional disability at onset; for Pain relapse from 2 to 48 hours postdose, Stratified Percentage Difference (Zavegepant-Placebo): subjects with pain freedom at 2 hours postdose
[1] = 5 mg single dose, mITT subjects, Overall
[2] = 5 mg single dose, mITT, Prophylactic migraine medication use: No
[3] = 5 mg single dose, mITT, Prophylactic migraine medication use: Yes
[4] = 10 mg single dose, mITT subjects, Overall
[5] = 10 mg single dose, mITT, Prophylactic migraine medication use: No
[6] = 10 mg single dose, mITT, Prophylactic migraine medication use: Yes
[7] = 10 mg single intranasal dose, p < 0.05
[8] = 20 mg single dose, mITT subjects, Overall
[9] = 20 mg single dose, mITT, Prophylactic migraine medication use: No
[10] = 20 mg single dose, mITT, Prophylactic migraine medication use: Yes
[11] = 20 mg single intranasal dose, p < 0.05
[12] = zavegepant 5 mg vs placebo, mITT, CMH weighting
[13] = zavegepant 5 mg vs placebo, CMH weighting
[14] = zavegepant 5 mg vs placebo, subjects with symptom present at onset, CMH weighting
[15] = zavegepant 5 mg, mITT subjects with functional disability at on-study migraine attack onset
[16] = zavegepant 5 mg, mITT subjects with symptom present at on-study migraine attack onset
[17] = zavegepant 10 mg vs placebo, mITT, CMH weighting
[18] = zavegepant 10 mg vs placebo, CMH weighting
[19] = zavegepant 10 mg vs placebo, subjects with symptom present at onset, CMH weighting

Question: Which results are given for `Cc1cc(C[C@@H](NC(=O)N2CCC(c3cc4ccccc4[nH]c3=O)CC2)C(=O)N2CCN(C3CCN(C)CC3)CC2)cc2cn[nH]c12` [Zavegepant, (R)—N-(3-(7-methyl-1H-indazol-5-yl)-1-(4-(1-methylpiperidin-4-yl)piperazin-1-yl)-1-oxopropan-2-yl)-4-(2-oxo-1,2-dihydroquinolin-3-yl)piperidine-1-carboxamide]?
Answer: Pain Relief at 15 Minutes Post-Dose, (%) of subjects [1]: (14.2) %; Pain Relief at 15 Minutes Post-Dose, n/N [1]: 55/387; Pain Relief at 15 Minutes Post-Dose, Stratified percentage difference (BHV-3500-Placebo) (5 mg single dose, mITT subjects, Overall, CMH weighting): 4.2%; Pain Relief at 15 Minutes Post-Dose, (%) of subjects [2]: (14.7) %; Pain Relief at 15 Minutes Post-Dose, Percentage difference (BHV-3500-Placebo) [2]: 4.6%; Pain Relief at 15 Minutes Post-Dose, n/N [2]: 49/333; Pain Relief at 15 Minutes Post-Dose, (%) of subjects [3]: (11.1) %; Pain Relief at 15 Minutes Post-Dose, Percentage difference (BHV-3500-Placebo) [3]: 1.9%; Pain Relief at 15 Minutes Post-Dose, n/N [3]: 8/54; 2 Hour Endpoint Freedom from MBS (Most Bothersome Symptom) (5 mg single intranasal dose): 39.0%; 2 Hour Endpoint Pain Freedom (5 mg single intranasal dose): 19.6%; Pain Relief at 15 Minutes Post-Dose, (%) of subjects [4]: (18.2) %; Pain Relief at 15 Minutes Post-Dose, n/N [4]: 71/331; Pain Relief at 15 Minutes Post-Dose, Stratified percentage difference (BHV-3500-Placebo) (10 mg single dose, mITT subjects, Overall, CMH weighting): 8.2%; Pain Relief at 15 Minutes Post-Dose, (%) of subjects [5]: (17.3) %; Pain Relief at 15 Minutes Post-Dose, Percentage difference (BHV-3500-Placebo) [5]: 7.2%; Pain Relief at 15 Minutes Post-Dose, n/N [5]: 59/341; Pain Relief at 15 Minutes Post-Dose, (%) of subjects [6]: (24.0) %; Pain Relief at 15 Minutes Post-Dose, Percentage difference (BHV-3500-Placebo) [6]: 14.7%; Pain Relief at 15 Minutes Post-Dose, n/N [6]: 12/50; 2 Hour Endpoint Freedom from MBS (Most Bothersome Symptom) [7]: 41.9%*; 2 Hour Endpoint Pain Freedom [7]: 22.5%*; return to normal function (20 mg): as early as 30 minutes; Pain Relief at 15 Minutes Post-Dose, (%) of subjects [8]: (14.7) %; Pain Relief at 15 Minutes Post-Dose, n/N [8]: 59/402; Pain Relief at 15 Minutes Post-Dose, Stratified percentage difference (BHV-3500-Placebo) (20 mg single dose, mITT subjects, Overall, CMH weighting): 4.7%; Pain Relief at 15 Minutes Post-Dose, (%) of subjects [9]: (13.3) %; Pain Relief at 15 Minutes Post-Dose, Percentage difference (BHV-3500-Placebo) [9]: 3.2%; Pain Relief at 15 Minutes Post-Dose, n/N [9]: 46/345; Pain Relief at 15 Minutes Post-Dose, (%) of subjects [10]: (22.3) %; Pain Relief at 15 Minutes Post-Dose, Percentage difference (BHV-3500-Placebo) [10]: 13.5%; Pain Relief at 15 Minutes Post-Dose, n/N [10]: 13/57; 2 Hour Endpoint Freedom from MBS (Most Bothersome Symptom) [11]: 42.5%*; 2 Hour Endpoint Pain Freedom [11]: 23.1%*; onset of pain relief (5, 10, and 20 mg single dose, stratified CMH tests, mITT subjects): pain relief as early as 15 minutes post-dose; durability of benefits (sustained pain freedom and pain relief 2 to 24 and 2 to 48 hours) (5, 10 and 20 mg (pain relief 2 to 48: 5 and 10 mg), nominal p<0.05): durable and sustained without rescue medication out to 48 hours; pain relief and return to normal function at 2 hours (10 and 20 mg doses): therapeutic benefits; comparison to placebo on co-primary endpoints of pain freedom and freedom from MBS at 2 hours (10 and 20 mg, single dose, p<0.05): statistically superior; comparison to placebo on multiple secondary endpoints demonstrating early activity (nominal p<0.05): superior to placebo; Pain relief at 2 hours postdose, n/N (%) (zavegepant 5 mg intranasal single dose, mITT subjects): (57.9) %; Pain relief at 30 minutes postdose, Stratified Percentage Difference (Zavegepant-Placebo) [12]: 1.9%; Pain relief at 60 minutes postdose, Stratified Percentage Difference (Zavegepant-Placebo) [12]: 5.1%; Rescue medication use within 24 hours postdose, Stratified Percentage Difference (Zavegepant-Placebo) [12]: −2.4%; Sustained pain freedom from 2 to 24 hours postdose, Stratified Percentage Difference (Zavegepant-Placebo) [12]: 5.3%; Sustained pain freedom from 2 to 48 hours postdose, Stratified Percentage Difference (Zavegepant-Placebo) [12]: 5.5%; Sustained pain relief from 2 to 24 hours postdose, Stratified Percentage Difference (Zavegepant-Placebo) [12]: 8.0%; Sustained pain relief from 2 to 48 hours postdose, Stratified Percentage Difference (Zavegepant-Placebo) [12]: 7.4%; Pain relief at 2 hours postdose, Stratified Percentage Difference (Zavegepant-Placebo) [12]: 4.2%; Return to normal function at 30 minutes postdose, Stratified Percentage Difference (Zavegepant-Placebo) [13]: 3.4%; Return to normal function at 60 minutes postdose, Stratified Percentage Difference (Zavegepant-Placebo) [13]: 5.5%; Return to normal function at 2 hours postdose, Stratified Percentage Difference (Zavegepant-Placebo) [13]: 4.3%; Pain relapse from 2 to 48 hours postdose, Stratified Percentage Difference (Zavegepant-Placebo) [13]: −18.9%; Nausea freedom at 2 hours postdose, Stratified Percentage Difference (Zavegepant-Placebo) [14]: 1.8%; Phonophobia freedom at 2 hours postdose, Stratified Percentage Difference (Zavegepant-Placebo) [14]: 10.1%; Photophobia freedom at 2 hours postdose, Stratified Percentage Difference (Zavegepant-Placebo) [14]: 4.6%; Pain relief at 30 minutes postdose, n/N (%) (zavegepant 5 mg, mITT subjects): (26.6) %; Pain relief at 60 minutes postdose, n/N (%) (zavegepant 5 mg, mITT subjects): (47.0) %; Rescue medication use within 24 hours postdose, n/N (%) (zavegepant 5 mg, mITT subjects): (24.9) %; Sustained pain freedom from 2 to 24 hours postdose, n/N (%) (zavegepant 5 mg, mITT subjects): (14.2) %; Sustained pain freedom from 2 to 48 hours postdose, n/N (%) (zavegepant 5 mg, mITT subjects): (12.9) %; Sustained pain relief from 2 to 24 hours postdose, n/N (%) (zavegepant 5 mg, mITT subjects): (43.7) %; Sustained pain relief from 2 to 48 hours postdose, n/N (%) (zavegepant 5 mg, mITT subjects): (40.1) %; Return to normal function at 30 minutes postdose, n/N (%) [15]: (8.8) %; Return to normal function at 60 minutes postdose, n/N (%) [15]: (22.6) %; Return to normal function at 2 hours postdose, n/N (%) [15]: (31.7) %; Pain relapse from 2 to 48 hours postdose, n/N (%) (zavegepant 5 mg, mITT subjects with pain freedom at 2 hours postdose): (31.6) %; Nausea freedom at 2 hours postdose, n/N (%) [16]: (53.2) %; Phonophobia freedom at 2 hours postdose, n/N (%) [16]: (44.2) %; Photophobia freedom at 2 hours postdose, n/N (%) [16]: (35.0) %; Pain relief at 2 hours postdose, n/N (%) (zavegepant 10 mg intranasal single dose, mITT subjects): (60.6) %; Pain relief at 30 minutes postdose, Stratified Percentage Difference (Zavegepant-Placebo) [17]: 5.3%; Pain relief at 60 minutes postdose, Stratified Percentage Difference (Zavegepant-Placebo) [17]: 4.2%; Rescue medication use within 24 hours postdose, Stratified Percentage Difference (Zavegepant-Placebo) [17]: −1.1%; Sustained pain freedom from 2 to 24 hours postdose, Stratified Percentage Difference (Zavegepant-Placebo) [17]: 6.1%; Sustained pain freedom from 2 to 48 hours postdose, Stratified Percentage Difference (Zavegepant-Placebo) [17]: 6.3%; Sustained pain relief from 2 to 24 hours postdose, Stratified Percentage Difference (Zavegepant-Placebo) [17]: 6.8%; Sustained pain relief from 2 to 48 hours postdose, Stratified Percentage Difference (Zavegepant-Placebo) [17]: 7.0%; Pain relief at 2 hours postdose, Stratified Percentage Difference (Zavegepant-Placebo) [17]: 7.1%; Return to normal function at 30 minutes postdose, Stratified Percentage Difference (Zavegepant-Placebo) [18]: 2.1%; Return to normal function at 60 minutes postdose, Stratified Percentage Difference (Zavegepant-Placebo) [18]: 1.8%; Return to normal function at 2 hours postdose, Stratified Percentage Difference (Zavegepant-Placebo) [18]: 7.1%; Pain relapse from 2 to 48 hours postdose, Stratified Percentage Difference (Zavegepant-Placebo) [18]: −17.0%; Nausea freedom at 2 hours postdose, Stratified Percentage Difference (Zavegepant-Placebo) [19]: 2.9%; Phonophobia freedom at 2 hours postdose, Stratified Percentage Difference (Zavegepant-Placebo) [19]: 10.8%
